Reference: PMC9312901 (2022)

Columns and labels:
[1] = tested on: APT (3-O-C12-HSL aptamer) (DNA, aptamer) GCAATGGTACGGTACTTCCCGGGGCCCGCTTCTGGTGCGGTGTACTAGTGACCGCAAAAGTGCACGCTACTTTGCTAA; experiment: DPV on C-SPE/AuNPs/APT/MCH electrode; settings: 0.5 mM MB, 30 min; measured in 10 mM PBS pH 7.4; MB lost on successive blank incubations
[2] = tested on: APT (3-O-C12-HSL aptamer) (DNA, aptamer) GCAATGGTACGGTACTTCCCGGGGCCCGCTTCTGGTGCGGTGTACTAGTGACCGCAAAAGTGCACGCTACTTTGCTAA; experiment: EIS aptasensor (C-SPE/AuNPs/APT/MCH); settings: 10 µM compound, 30 min, room temperature; [Fe(CN)6]3-/4- redox probe
[3] = tested on: APT (3-O-C12-HSL aptamer) (DNA, aptamer) GCAATGGTACGGTACTTCCCGGGGCCCGCTTCTGGTGCGGTGTACTAGTGACCGCAAAAGTGCACGCTACTTTGCTAA; experiment: SPR, steady-state affinity fit; settings: Na+ 100 mM; K+ 100 mM; Mg2+ 10 mM (TRIS buffer; running buffer printed only as 10 mM TRIS); 10 mM TRIS pH 7.4 running buffer; aptamer on gold chip, MCH blocked; 10-1000 nM
[4] = tested on: APT (3-O-C12-HSL aptamer) (DNA, aptamer) GCAATGGTACGGTACTTCCCGGGGCCCGCTTCTGGTGCGGTGTACTAGTGACCGCAAAAGTGCACGCTACTTTGCTAA; experiment: SPR, kinetic 1:1 Langmuir fit (kd/ka); settings: Na+ 100 mM; K+ 100 mM; Mg2+ 10 mM (TRIS buffer; running buffer printed only as 10 mM TRIS); 10 mM TRIS pH 7.4 running buffer; aptamer on gold chip, MCH blocked; 10-1000 nM

binding [2]	SMILES	other results
	CN(C)c1ccc2nc3ccc(N(C)C)cc3[s+]c2c1	binding [1]: yes
weak	CCCC(=O)N[C@H]1CCOC1=O	
yes	CCCCCCCC(=O)CC(=O)N[C@H]1CCOC1=O	
yes	CCCCCCCCCCCC(=O)N[C@H]1CCOC1=O	
	CCCCCCCCCC(=O)CC(=O)N[C@H]1CCOC1=O	KD,equilibrium [3]: 106.7 ± 9.3 nM; KD,kinetic [4]: 87.1 ± 10 nM
